Here are results for 28 compounds from patent publication US6410792B1, “Amide derivatives and methods for using the same as selective neuropeptide Y receptor antagonists” (Bayer Corporation, priority 1997, dated 2002).

The target in one test is T1, Human NPY5 receptor (Homo sapiens, UniProt Q15761).
T1 sequence (Q15761 1-445): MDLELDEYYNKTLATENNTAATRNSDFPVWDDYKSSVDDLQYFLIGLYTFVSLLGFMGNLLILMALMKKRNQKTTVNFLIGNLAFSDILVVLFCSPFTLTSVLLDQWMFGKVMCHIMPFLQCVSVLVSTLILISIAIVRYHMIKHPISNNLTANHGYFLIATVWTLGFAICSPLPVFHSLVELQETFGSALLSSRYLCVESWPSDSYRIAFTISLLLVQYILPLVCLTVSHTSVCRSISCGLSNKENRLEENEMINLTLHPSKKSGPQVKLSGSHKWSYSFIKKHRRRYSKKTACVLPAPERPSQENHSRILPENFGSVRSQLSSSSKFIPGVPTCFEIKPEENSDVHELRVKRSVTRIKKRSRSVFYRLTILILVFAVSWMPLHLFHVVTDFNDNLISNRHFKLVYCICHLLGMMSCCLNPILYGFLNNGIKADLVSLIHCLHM
Nature of the test: Human NPY5 receptor binding assay ([125I]PYY, membrane protein). The conditions noted are these: [125I]PYY binding, read-out: hNPY5 IC50. As to the method: C. Human and Rat NPY5 Receptor Binding Assays
Binding assays are performed on GF/C Millipore 96well plates pretreated with 0.02% polyethylenimine. The binding buffer is 25 mM Tris, 120 mM NaCl, 5 mM KCl, 1.2 mM KH2PO4, 2.5 mM CaCl2, 1.2 mM MgSO4, 0.1% BSA and 0.5 mg/ml bacitracin, pH 7.4. Samples consist of membrane protein, 75-100 pM [125I]PYY (porcine, NEN-DuPont) and drug dilution. Nonspecific binding is defined by 1 μM PYY. After a 2 hour incubation at room temperature with constant mixing, the samples are aspirated on a vacuum manifold, and rinsed with ice-cold binding buffer. The amount of radioactivity in each well is quantitated with either gamma counting or liquid scintillation.

A further test concerns the target T2, Y2 receptor (Homo sapiens, UniProt P49146).
T2 sequence (P49146 1-381): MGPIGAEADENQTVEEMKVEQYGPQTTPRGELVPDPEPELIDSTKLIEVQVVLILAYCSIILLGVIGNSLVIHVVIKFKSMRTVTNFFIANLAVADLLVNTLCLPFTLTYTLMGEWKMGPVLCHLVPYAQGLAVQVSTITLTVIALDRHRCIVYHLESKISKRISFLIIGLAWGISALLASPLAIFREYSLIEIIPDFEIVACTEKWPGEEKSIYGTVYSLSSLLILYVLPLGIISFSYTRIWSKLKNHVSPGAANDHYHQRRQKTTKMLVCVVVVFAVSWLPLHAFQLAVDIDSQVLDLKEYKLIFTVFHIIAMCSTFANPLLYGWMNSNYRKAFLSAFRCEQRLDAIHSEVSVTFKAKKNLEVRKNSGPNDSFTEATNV
Description: Y2 receptor binding assay ([125I]PYY, membrane protein). The conditions noted are these: [125I]PYY binding, membrane protein; read-out: hNPY2 IC50. As to the method: B. Human Y2 and Y4/PP1 Receptor Binding Assays
Binding assays were performed on GF/C Millipore 96-well plates pretreated with 0.02% polyethylenimine. The binding buffer for rat Y2 binding is Krebs-Ringer bicarbonate (pH 7.4) containing 0.01% BSA and 0.005% bacitracin. Samples consist of membrane protein, 25 pM [1251]PYY and drug dilution. Nonspecific binding is defined by 1 μM NPY. The binding buffer for human Y4/PP1 binding consists of 137 mM NaCl, 5.4 mM KCl, 0.44 mM KH2PO4, 1.26 mM CaCl2, 0.81 mM MgSO4, 20 mM HEPES, 1 mM dithiothreitol, 0.1% bacitracin, 100 mg/l streptomycin sulfate, 1 mg/l aprotinin, 10 mg/ml soybean trypsin inhibitor and 0.3% BSA, pH 7.4. Samples consist of membrane protein, 50 pM human [1251]human PP (hPP: NEN DuPont, Boston, Mass.) and drug dilution. 1 μM hPP is used to define nonspecific binding.
After a 2 hour incubation at room temperature with constant mixing, the samples are aspirated on a vacuum manifold, and rinsed with ice-cold binding buffer. The amount of radioactivity in each well is quantitated with either gamma counting or liquid scintillation.

The structures appear in SMILES notation. Some results are limits rather than exact numbers.

Turning to `O=C(CN1CCC(O)(Cc2ccccc2)CC1)Nc1ccc(C2CCCCC2)cc1` [Compound 1, 2-(4-Benzyl-4-hydroxypiperidin-1-yl)-N-(4-cyclohexylphenyl)acetamide], the IC50 is 0.15 µM on Human NPY5 receptor and above 5 µM at Y2 receptor.
Regarding `CN(C)CC(=O)Nc1ccc(C2CCCCC2)cc1` [Compound 2, N-(4-Cyclohexyl-phenyl)-2-dimethylamino-acetamide], the half-maximal inhibitory concentration (IC50) at Human NPY5 receptor was 0.78 µM; on Y2 receptor it was above 5 µM.
The corresponding values for `O=C(CN1CCN(c2ccccc2Cl)CC1)Nc1ccc(C2CCCCC2)cc1` [Compound 3, 2-[4-(2-Chloro-phenyl)-piperazin-1-yl]-N-(4-cyclohexyl-phenyl)-acetamide] are 0.19 µM and above 5 µM.
The corresponding values for `O=C(CN1CCOCC1)Nc1ccc(C(=O)c2ccccc2)cc1` [Compound 6, N-(4-Benzoyl-phenyl)-2-morpholin-4-yl-acetamide] are 0.8 µM and above 5 µM.
On the same counts, the results for `CCN(CC)CC(=O)Nc1ccc(C(=O)c2ccccc2)cc1` [Compound 7, N-(4-Benzoyl-phenyl)-2-diethylamino-acetamide] are 1.6 µM and above 5 µM.
Consider `O=C(CN1CCN(c2ccccc2Cl)CC1)Nc1ccc(C(=O)c2ccccc2)cc1` [Compound 8, N-(4-Benzoyl-phenyl)-2-[4-(2-chloro-phenyl)-piperazin-1-yl]-acetamide], for which the IC50 at Human NPY5 receptor was 0.96 µM; on Y2 receptor, above 5 µM.
On the same counts, the results for `O=C(CN1CCN(c2cccc(Cl)c2)CC1)Nc1ccc(C(=O)c2ccccc2)cc1` [Compound 9] are 0.64 µM and above 5 µM.
On the same counts, the results for `O=C(CN1CCN(c2ccc(Cl)cc2)CC1)Nc1ccc(C(=O)c2ccccc2)cc1` [Compound 10, N-(4-Benzoyl-phenyl)-2-[4-(4-chloro-phenyl)-piperazin-1-yl]-acetamide] are 2.9 µM and above 5 µM.
The corresponding values for `O=C(CNCc1ccccc1)Nc1ccc(C2CCCCC2)cc1` [Compound 11, 2-Benzylamino-N-(4-cyclohexyl-phenyl)-acetamide] are 2.8 µM and above 5 µM.
On to `O=C(CN1CCN(Cc2ccccc2)CC1)Nc1ccc(C2CCCCC2)cc1` [Compound 13, 2-(4-Benzyl-piperazin-1-yl)-N-(4-cyclohexyl-phenyl)-acetamide], for which the figures for the half-maximal inhibitory concentration (IC50) on Human NPY5 receptor and on Y2 receptor were 9.1 µM and above 5 µM, respectively.
The corresponding values for `O=C(CN(CCO)c1ccccc1)Nc1ccc(C2CCCCC2)cc1` [Compound 14, N-(4-cyclohexyl-phenyl)-2-[(2-hydroxy-ethyl)-phenyl-amino]-acetamide] are 1.8 µM and above 5 µM.
The corresponding values for `O=C(CN1CCN(Cc2ccccc2)CC1)Nc1ccc(C(=O)c2ccccc2)cc1` [Compound 16, N-(4-Benzoyl-phenyl)-2-(4-benzyl-piperazin-1-yl)-acetamide] are 9.6 µM and above 5 µM.
Turning to `O=C(CN(CCO)c1ccccc1)Nc1ccc(C(=O)c2ccccc2)cc1` [Compound 17, N-(4-Benzoyl-phenyl)-2-[(2-hydroxy-ethyl)-phenyl-amino]-acetamide], the figures for the concentration for half-maximal inhibition (IC50) on Human NPY5 receptor and at Y2 receptor were 1.2 µM and above 5 µM, respectively.
The corresponding values for `O=C(CN1CC=C(c2ccc(Cl)cc2)CC1)Nc1ccc(C(=O)c2ccccc2)cc1` [Compound 18, N-(4-Benzoyl-phenyl)-2-[4-(4-chloro-phenyl)-3,6-dihydro-2H-pyridin-1-yl]-acetamide] are 5.2 µM and above 5 µM.
For `O=C(CN1CCC(O)(Cc2ccccc2)CC1)Nc1ccc(C(=O)c2ccccc2)cc1` [Compound 19, N-(4-Benzoyl-phenyl)-2-(4-benzyl-4-hydroxy-piperidin-1-yl)-acetamide], the IC50 at Human NPY5 receptor was 0.4 µM; on Y2 receptor, above 5 µM.
The corresponding values for `O=C(CN1[C@@H](C(=O)O)CC[C@@H]1O)Nc1ccc(C(=O)c2ccccc2)cc1` [Compound 20, (5S,2R)-1-[(4-Benzoyl-phenylcarbamoyl)-methyl]-5-hydroxy-pyrrolidine-2-carboxylic acid] are 7.6 µM and above 5 µM.
Take `CCN(CC(=O)Nc1ccc(C(=O)c2ccccc2)cc1)Cc1ccncc1` [Compound 21, N-(4-Benzoyl-phenyl)-2-(ethyl-pyridin-4-ylmethyl-amino)-acetamide]: the half-maximal inhibitory concentration (IC50) was 0.63 µM on Human NPY5 receptor and above 5 µM at Y2 receptor.
`O=C(CN(c1ccccn1)c1ccccn1)Nc1ccc(C(=O)c2ccccc2)cc1` [Compound 22, N-(4-Benzoyl-phenyl)-2-(di-pyridin-2-yl-amino)-acetamide]: the IC50 on Human NPY5 receptor is 9.9 µM; at Y2 receptor, above 5 µM.
As for `O=C(CN1CCC(CCCC2CCNCC2)CC1)Nc1ccc(C2CCCCC2)cc1` [Compound 23, N-(4-Cyclohexyl-phenyl)-2-[4-(3-piperidin-4-yl-propyl)-piperidin-1-yl]-acetamide], the results for the IC50 at Human NPY5 receptor and on Y2 receptor were above 10 µM and above 5 µM, respectively.
The corresponding values for `O=C(CN1CCC(N2CCCCC2)CC1)Nc1ccc(C2CCCCC2)cc1` [Compound 24, 2-[1,4′]Bipiperidinyl-1′-yl-N-(4-cyclohexyl-phenyl)-acetamide] are 2.9 µM and above 5 µM.
Regarding `O=C(CNCC1CCNCC1)Nc1ccc(C2CCCCC2)cc1` [Compound 28, N-(4-Cyclohexyl-phenyl)-2-[(piperidin-4-ylmethyl)-amino]-acetamide], the results for the IC50 on Human NPY5 receptor and at Y2 receptor were 8.9 µM and above 5 µM, respectively.
As for `O=C(CN1CCC(N2CCCC2)CC1)Nc1ccc(C2CCCCC2)cc1` [Compound 29], the IC50 on Human NPY5 receptor is 4.4 µM; on Y2 receptor it was above 5 µM.
The corresponding values for `NC(=O)C1(Nc2ccccc2)CCN(CC(=O)Nc2ccc(C3CCCCC3)cc2)CC1` [Compound 31, 1-[(4-Cyclohexyl-phenylcarbamoyl)-methyl]-4-phenylamino-piperidine-4-carboxylic acid amide] are 1.2 µM and above 5 µM.
On the same counts, the results for `CN(C)C1CCN(CC(=O)Nc2ccc(C3CCCCC3)cc2)CC1` [Compound 32, N-(4-Cyclohexyl-phenyl)-2-(4-dimethylamino-piperidin-1-yl)-acetamide] are 3 µM and above 5 µM.
`CC1CCN(CC(=O)Nc2ccc(C3CCCCC3)cc2)CC1` [Compound 33, N-(4-Cyclohexyl-phenyl)-2-(4-methyl-piperidin-1-yl)-acetamide]: the half-maximal inhibitory concentration (IC50) at Human NPY5 receptor was above 10 µM; on Y2 receptor, above 5 µM.
Turning to `CC1(C)CCN(CC(=O)Nc2ccc(C3CCCCC3)cc2)CC1` [Compound 34, N-(4-Cyclohexyl-phenyl)-2-(4,4-dimethyl-piperidin-1-yl)-acetamide], the figures for the IC50 at Human NPY5 receptor and at Y2 receptor were 1.4 µM and above 5 µM, respectively.
In the case of `NC(=O)C1(NC2CCCCC2)CCN(CC(=O)Nc2ccc(C3CCCCC3)cc2)CC1` [Compound 35, 4-Cyclohexylamino-1-[(4-cyclohexyl-phenylcarbamoyl)-methyl]-piperidin-4-carboxylic acid amide], the values for the half-maximal inhibitory concentration (IC50) at Human NPY5 receptor and on Y2 receptor were 0.63 µM and above 5 µM, respectively.
As to `CN(C)C1(C(N)=O)CCN(CC(=O)Nc2ccc(C3CCCCC3)cc2)CC1` [Compound 36, 1-[(4-Cyclohexyl-phenylcarbamoyl)-methyl]-4-dimethylamino-piperidine-4-carboxylic acid amide], the results for the concentration for half-maximal inhibition (IC50) at Human NPY5 receptor and on Y2 receptor were 0.71 µM and above 5 µM, respectively.

The IC50 is the concentration needed to halve the response being measured.
